Data from the NIST ThermoML archive (doi:10.1016/j.jct.2014.07.022).

Experiment: xn = mol fraction of the nth substance listed
Settings: Gas, Spherical resonator

[C-]#[O+] [carbon monoxide] + N#N
Settings | speed of sound [m/s]
273.04 K, 5000 kPa, x1 = 0.04999 | 345.57
273.04 K, 7995 kPa, x1 = 0.04999 | 354.43
273.05 K, 99 kPa, x1 = 0.04999 | 336.94
273.05 K, 995 kPa, x1 = 0.04999 | 337.99
273.05 K, 2997 kPa, x1 = 0.04999 | 341.18
273.05 K, 3989 kPa, x1 = 0.04999 | 343.2
273.05 K, 5997 kPa, x1 = 0.04999 | 348.21
273.05 K, 6998 kPa, x1 = 0.04999 | 351.18
273.11 K, 1992 kPa, x1 = 0.04999 | 339.44
273.16 K, 996 kPa, x1 = 0.1002 | 338.03
273.17 K, 1993 kPa, x1 = 0.1002 | 339.46
273.17 K, 2993 kPa, x1 = 0.1002 | 341.21
273.17 K, 4989 kPa, x1 = 0.1002 | 345.57
273.17 K, 6000 kPa, x1 = 0.1002 | 348.25
273.18 K, 3997 kPa, x1 = 0.1002 | 343.25
273.18 K, 6994 kPa, x1 = 0.1002 | 351.2
273.18 K, 8019 kPa, x1 = 0.1002 | 354.55
273.18 K, 8970 kPa, x1 = 0.1002 | 357.95
273.2 K, 9955 kPa, x1 = 0.1002 | 361.78
273.24 K, 9010 kPa, x1 = 0.04999 | 358.19
273.24 K, 9993 kPa, x1 = 0.04999 | 361.99
324.94 K, 117 kPa, x1 = 0.1002 | 367.62
324.94 K, 5998 kPa, x1 = 0.1002 | 381.69
324.94 K, 10006 kPa, x1 = 0.1002 | 394.85
324.95 K, 1001 kPa, x1 = 0.1002 | 369.33
324.95 K, 3002 kPa, x1 = 0.1002 | 373.73
324.95 K, 3998 kPa, x1 = 0.1002 | 376.19
324.95 K, 8963 kPa, x1 = 0.1002 | 391.17
324.96 K, 1989 kPa, x1 = 0.1002 | 371.42
324.96 K, 5002 kPa, x1 = 0.1002 | 378.87
324.96 K, 6999 kPa, x1 = 0.1002 | 384.73
324.96 K, 7996 kPa, x1 = 0.1002 | 387.92
324.99 K, 8000 kPa, x1 = 0.04999 | 387.94
325 K, 1002 kPa, x1 = 0.04999 | 369.31
325 K, 1991 kPa, x1 = 0.04999 | 371.4
325.01 K, 99 kPa, x1 = 0.04999 | 367.57
325.01 K, 3003 kPa, x1 = 0.04999 | 373.73
325.01 K, 4998 kPa, x1 = 0.04999 | 378.87
325.03 K, 3999 kPa, x1 = 0.04999 | 376.21
325.03 K, 5995 kPa, x1 = 0.04999 | 381.72
325.05 K, 9002 kPa, x1 = 0.04999 | 391.36
325.13 K, 10001 kPa, x1 = 0.04999 | 394.94
325.23 K, 7007 kPa, x1 = 0.04999 | 384.9
